Data on four compounds can be found in patent US9321747B2, “Acid addition salt of substituted pyridine compound” (DAIICHI SANKYO COMPANY, LIMITED, priority 2012, dated 2016).

Structures can show the parent of a compound that is named as a salt.

The target in the assay is recombinant human CETP protein (Homo sapiens (Human), UniProt P11597). The experiment in a line: Test of CETP inhibition activity (in vitro, buffer-based). The class given is biochemical. The following applies: [14C]-cholesteryl ester transfer from reconstituted HDL to acceptor lipoprotein, 37° C., 60 minutes, PBS buffer. As to the method: Test of CETP Inhibition Activity (In Vitro, Buffer-Based)
Chain of recombinant human CETP protein (P11597 18-493): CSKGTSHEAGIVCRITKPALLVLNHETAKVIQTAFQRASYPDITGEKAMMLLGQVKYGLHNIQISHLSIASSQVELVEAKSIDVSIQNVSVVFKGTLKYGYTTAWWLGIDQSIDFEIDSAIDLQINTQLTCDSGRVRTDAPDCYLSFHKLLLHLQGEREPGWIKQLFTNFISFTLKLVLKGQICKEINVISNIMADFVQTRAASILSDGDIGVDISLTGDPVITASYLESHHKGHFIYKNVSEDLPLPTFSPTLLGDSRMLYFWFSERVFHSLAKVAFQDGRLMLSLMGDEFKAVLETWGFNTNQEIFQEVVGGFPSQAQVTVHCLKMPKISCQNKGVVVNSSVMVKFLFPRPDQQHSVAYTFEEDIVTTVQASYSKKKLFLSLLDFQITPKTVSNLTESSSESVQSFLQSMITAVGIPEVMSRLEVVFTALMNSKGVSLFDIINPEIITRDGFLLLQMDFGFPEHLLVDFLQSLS
(1) Preparation of Reconstituted HDL
Cholesterol (1.125 μmol), phosphatidyl choline (4.5 μmol) and [^14C]-labeled cholesteryl ester (2.0 μCi; 40 μl) were taken in a glass test tube and well mixed with a vortex, and dried under a nitrogen gas current so that it formed a thin film. The obtained mixture was dissolved in ethanol (200 μl), which was designated as Solution A. A PBS solution [a mixed solution of Na2HPO4 (30 mM), KH2PO4 (8.8 mM), NaCl (60 mM) and EDTA (pH 7.4; 0.67 mM); 4 ml] was taken in a tube and the reaction solution was vigorously stirred with a vortex under a nitrogen current. The above-described Solution A was gently injected into this mixture with a syringe and the reaction solution was vigorously stirred with a vortex for 5 minutes under a nitrogen current. Sodium cholate (200 mM; 0.38 ml) was added to the obtained mixture and the reaction solution was stirred for 2 minutes. ApoA-I protein (3 mg) was added to the obtained mixture and the reaction solution was stirred for 2 minutes. The obtained mixture was adjusted to 5 ml with the PBS solution and then dialyzed with the PBS solution. The obtained mixture was designated as the reconstituted HDL.
(2) Preparation of Acceptor Lipoprotein
NaBr was added to the plasma of a healthy person and the density of the mixture was adjusted to 1.019, and the mixture was subjected to density gradient centrifugation (40000 rpm, for 16 hours) to remove the fraction having a density of less than 1.019. NaBr was added to the obtained mixture and the density of the solution was adjusted to 1.063, and the solution was subjected to density gradient centrifugation (40000 rpm, 18 hours) to provide the fraction consisting of IDL (intermediate density lipoprotein) and LDL (1.019<density<1.063). The obtained fraction was dialyzed with the PBS solution. The obtained mixture was designated as the acceptor lipoprotein.
(3) Measurement of CETP Inhibition Activity
A recombinant human CETP protein (manufactured by Roar Biomedical Inc.; 4.5 ng), the acceptor lipoprotein described in (2) above (32.5 μg) and 5,5′-dithio-bis-(2-nitrobenzoic acid) (7 mM, 15 μl) were taken in a 96 well plate and the total amount of the mixture was adjusted to 48.5 μl with the PBS solution. The test compound [DMSO solution (concentration: 0.15, 0.5, 1.5, 5, 15, 50, 150 and 500 μM); 1.5 μl] was added to each well and the mixture was incubated in a thermostatic bath at 37° C. for 60 minutes. The reconstituted HDL (50 μl) described in (1) above was added to each well and the mixture was reacted in a thermostatic bath at 37° C. for 60 minutes. The 96 well plate was moved onto ice and a precipitation reagent [a mixed solution of magnesium chloride (60 mM) and 0.1% dextran sulfate[1/1(v/v)]; 15 μl] was added to each well, and then the mixture was allowed to stand on ice for 15 minutes. The reaction solution (80 μl) in each well was moved to a filter plate and centrifuged at 1500 rpm for 1 minute, and the filtrate which passed through the filter was designated as the HDL fraction and the radioactivity thereof was measured with a scintillation counter. The percentage decrease in radioactivity in the case where the test compound was added in comparison with that in case where the test compound was not added was designated as the percentage CETP inhibition. The IC50 value was calculated from the percentage CETP inhibition.

`CC1(C)Cc2nc(C3CCN(c4ncc(OCC(CO)CO)cn4)CC3)c([C@@H](F)c3ccc(C(F)(F)F)cc3)c(C3CCC(F)(F)CC3)c2[C@@H](O)C1` [Example 2, (5S)-4-(4,4-Difluorocyclohexyl)-3-{(S)-fluoro[4-(trifluoromethyl)phenyl]methyl}-2-(1-{5-[3-hydroxy-2-(hydroxymethyl)propoxy]pyrimidin-2-yl}piperidin-4-yl)-7,7-dimethyl-5,6,7,8-tetrahydroquinolin-5-ol dihydrobromide]: the IC50 was found to be 0.0308 µM.

With `CC1(C)Cc2nc(C3CCN(c4ncc(OCC(C)(CO)CO)cn4)CC3)c([C@@H](F)c3ccc(C(F)(F)F)cc3)c(C3CCC(F)(F)CC3)c2[C@@H](O)C1` [Example 4, (5S)-4-(4,4-Difluorocyclohexyl)-3-{(S)-fluoro[4-(trifluoromethyl)phenyl]methyl}-2-(1-{5-[3-hydroxy-2-(hydroxymethyl)-2-methylpropoxy]pyrimidin-2-yl}piperidin-4-yl)-7,7-dimethyl-5,6,7,8-tetrahydroquinolin-5-ol dihydrochloride], the IC50 (dihydrochloride) stood at 0.0223 µM.

Consider `CC1(C)Cc2nc(C3CCN(c4ncc(OCC(C)(CO)CO)cn4)CC3)c([C@@H](F)c3ccc(C(F)(F)F)cc3)c(C3CCC(F)(F)CC3)c2[C@@H](O)C1` [Example 5, (5S)-4-(4,4-Difluorocyclohexyl)-3-{(S)-fluoro[4-(trifluoromethyl)phenyl]methyl}-2-(1-{5-[3-hydroxy-2-(hydroxymethyl)-2-methylpropoxy]pyrimidin-2-yl}piperidin-4-yl)-7,7-dimethyl-5,6,7,8-tetrahydroquinolin-5-ol methanesulfonate], for which the half-maximal inhibitory concentration (IC50) came out at 0.0285 µM.

In the case of `CC1(C)Cc2nc(C3CCN(c4ncc(OCC(C)(CO)CO)cn4)CC3)c([C@@H](F)c3ccc(C(F)(F)F)cc3)c(C3CCC(F)(F)CC3)c2[C@@H](O)C1` [Example 3, (5S)-4-(4,4-Difluorocyclohexyl)-3-{(S)-fluoro[4-(trifluoromethyl)phenyl]methyl}-2-(1-{5-[3-hydroxy-2-(hydroxymethyl)-2-methylpropoxy]pyrimidin-2-yl}piperidin-4-yl)-7,7-dimethyl-5,6,7,8-tetrahydroquinolin-5-ol dihydrobromide], the IC50 (dihydrobromide) came out at 0.0393 µM.
